Results: patent US8530433B2, “Use of icariside II in manufacture of products for preventing or treating male or female sexual dysfunction” (Bjo-Biomed Ltd, priority 2008, dated 2013)

Columns and labels:
[1] = tested on: MPG nerve axon of old rats; assay: MPG (major pelvic ganglion) culture, nerve axon growth; format: cell-based, rat; conditions: for MPG nerve axon growth compared to control group: old rats; for MPG nerve axon growth (length of the longest nerve axon): old rats (24-month-old), n = 9
Experimental: The 24-month-old Sprague-Dawley male rats were used. All experimental animals used in this study were under a protocol approved by the Institutional Animal Care and Use Committee. Rats were anesthetized by intraperitoneal injection of pentobarbital sodium (200 mg/kg). After midline incision on abdomen, major pelvic ganglion was carefully dissected from prostate. MPG culture and treatment: the Bilaterally MPG was rapidly removed and after washing with PBS, DCR were stripped from MPG and cut into 3 pieces with the same size. Reduced Growth Factor Matrigel (RGFM) was diluted three times with serum free RPMI-1640 medium and placed in the 35 mm Petri dish on ice. The diluted RGFM were poured onto the cold sterilized glass cover slip and incubated at 37° C. for 1 hour in 35 mm Petri dishes to make the RGFM steady. Then each MPG was embedded in 40 μl of pre-cooled RGFM and maintained at 37° C. for 5 minute and cultured in RPMI 1640 with 1% penicillin-streptomycin that is maintained in humidified cell culture incubator containing 5% CO2 at 37° C. The cultured MPG tissues were randomly divided into 3 groups: control group, icariside II and sildenafil groups. […] Three MGP from the younger groups and the three MPG from the older groups were cultured with designation dose for 48-72 hours. Measurement of nerve axon growth: at the 48 and 72 hours, Nikon DXM1200 digital camera connected to Zeiss Axiovert microscope and ACT-1 software (20 times magnification) was used to observe the nerve axon growth on the MPG. The digital image was analyzed by […] 4000 and the length of the longest nerve axon was calculated.

[2] = tested on: Human corpus cavernosum smooth muscle cells; assay: RT-PCR mRNA expression of NOS isoforms and PDE5a in corpus cavernosum smooth muscle cells; format: cell-based; conditions: 12.5 μM; 1 day and 2 days treatment
Experimental: Human corpus cavernosum smooth muscle cells were grown in 60 mm Petri dishes. […] Then the treated CCSMCs were lysed with Trizol and total RNA was extracted and reverse transcribed into cDNA. PCR amplification was carried out using eNOS, iNOS, nNOS and PDE5a specific primers and the specific PCR products represent the mRNA levels.

[3] = tested on: Corpus cavernosum smooth muscle cells; assay: Western blot protein expression of NOS isoforms, PDE5, PKG and sGC in corpus cavernosum smooth muscle cells; format: cell-based, human; conditions: 12.5 μM; 1 and 2 days
Experimental: Corpus cavernosum smooth muscle cells were grown in 60 mm Petri dishes. […] Then the treated CCSMCs were lysed with RIPA buffer and subjected to 8% SDS-PAGE electrophosis. Expression of eNOS and other proteins were detected by Western blot. After exposing with super ECL luminescence substrate, the band was analyzed with a Optical density scanner. The resulted results were analyzed by normalizing to β-actin.

[4] = tested on: Primary human corpus cavernosum smooth muscle cells (CCSMCs); assay: NOS activity in corpus cavernosum smooth muscle cells; format: cell-based
Experimental: Primary human corpus cavernosum smooth muscle cells ([…]) were provided by the Andrology Center of Peking University. The […] of the third passage were cultured in six well plates for two days. Then the cells were treated with icariside II or the sildenafil at a concentration of 0, 10^-9, 10^-8, 10^-7, 10^-6, 10^-5 M; or treated with icariside II (0, 10^-9, 10^-8, 10^-7, 10^-6, 10^-5 M) in the presence or absence of LNNA (4×10^-4 M). The control group was cultured with DMEM only. After 24 hours, the cells were washed three times and 180 μl lysis buffer was added into each well; 60 μl cell suspension was taken for protein concentration assay with BCA protein kit; 100 μl cell suspension was taken for NOS activity test. NOS activity (units/mg protein)=[(valueNOS-measure-valueNOS-blank)÷(38.3×10^6)]×[(2.15+supernatant volume)÷(15×S supernatant volume)]÷[protein concentration in each well].

PDE5 = PDE5 (Homo sapiens, UniProt O76074); conditions: tested in vitro; previous study; cited from earlier work
[5] = tested on: volunteers with erectile dysfunction; conditions: 500 mg/time, single oral administration before sexual activity; cited from earlier work

Compound	MPG nerve axon growth compared to control group ([1]; 10 nM, 100 nM, 1000 nM)	MPG nerve axon growth (length of the longest nerve axon) ([1]; 10 nM)	MPG nerve axon growth (length of the longest nerve axon) ([1]; 100 nM)	MPG nerve axon growth (length of the longest nerve axon) ([1]; 1000 nM)	PDE5a mRNA level [2]	eNOS mRNA level [2]	iNOS mRNA level [2]	nNOS mRNA level [2]	PDE5a protein expression [3]	PKG protein expression [3]	eNOS protein expression [3]	iNOS protein expression [3]	nNOS protein expression [3]	sGC protein expression [3]	effect on NOS activity in CCSMCs ([4]; 10^−9 to 10^−5 M, 24 hours)	PDE5 inhibiting potency (PDE5)	NOS activity (peak) ([4]; 10^−6 M, 24 hours, untreated 0.46 units/mg) [units/mg]	NOS activity ([4]; 10^−8 M, 24 hours, untreated 0.46 units/mg) [units/mg]	peak value of NOS activity in presence of LNNA ([4]; with LNNA 4×10^−4 M) [unit/mg]	erectile function after single oral administration [5]
CCCc1nn(C)c2c(=O)[nH]c(-c3cc(S(=O)(=O)N4CCN(C)CC4)ccc3OCC)nc12 [Sildenafil, sildenafil, reference compound]	did not significantly affect	215 ± 2.6 μm	238 ± 3.5 μm	219 ± 3.2 μm	significantly reduced	not significantly changed	slightly increased after 2 days treatment	not significantly changed	decrease	increase	no effect	no effect	no effect	no effect	no significant difference	–	–	–	–	–
icariside II	significantly increased	295 ± 5.3 μm*	325 ± 4.1 μm*	406 ± 4.3 μm*	significantly decreased	not changed	slightly increased	significantly increased	significantly decreased	significantly increased	increased at 2 days	slightly increased	significantly increased	significantly increased	–	significantly lower than sildenafil	4.19	1.59	2.67	some improvement on erectile function, but the effect is not significant
